From PubChem BioAssay (NCI)
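How tested: cells in 96-well plates exposed to compound for 48 hours at five concentrations. Here, GI50 denotes the concentration required for 50% inhibition of growth. TGI: concentration producing complete growth inhibition.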

Key:
Experiment in all cases: NCI-60 cell line screen, 48 h; in the data active means GI50 below about 0.43 µM; inactive means the rest
786-0 renal = system: 786-0 renal
A498 renal = system: A498 renal
A549 NSCLC = system: A549 NSCLC
ACHN renal = system: ACHN renal
CAKI-1 renal = system: CAKI-1 renal
CCRF-CEM leukemia = system: CCRF-CEM leukemia
COLO 205 colon = system: COLO 205 colon
DU-145 prostate = system: DU-145 prostate
EKVX NSCLC = system: EKVX NSCLC
HCC-2998 colon = system: HCC-2998 colon
HCT-116 colon = system: HCT-116 colon
HCT-15 colon = system: HCT-15 colon
HL-60(TB) leukemia = system: HL-60(TB) leukemia
HOP-62 NSCLC = system: HOP-62 NSCLC
HOP-92 NSCLC = system: HOP-92 NSCLC
HS 578T breast = system: HS 578T breast
HT29 colon = system: HT29 colon
IGROV1 ovarian = system: IGROV1 ovarian
K-562 leukemia = system: K-562 leukemia
KM12 colon = system: KM12 colon
LOX IMVI melanoma = system: LOX IMVI melanoma
M14 melanoma = system: M14 melanoma
MCF7 breast = system: MCF7 breast
MDA-MB-231 breast = system: MDA-MB-231 breast
MDA-MB-435 = system: MDA-MB-435
MOLT-4 leukemia = system: MOLT-4 leukemia
NCI-H226 lung = system: NCI-H226 lung
NCI-H23 lung = system: NCI-H23 lung
NCI-H522 lung = system: NCI-H522 lung
NCI/ADR-RES ovarian = system: NCI/ADR-RES ovarian
OVCAR-3 ovarian = system: OVCAR-3 ovarian
OVCAR-4 ovarian = system: OVCAR-4 ovarian
OVCAR-5 ovarian = system: OVCAR-5 ovarian
OVCAR-8 ovarian = system: OVCAR-8 ovarian
PC-3 prostate = system: PC-3 prostate
RPMI-8226 leukemia = system: RPMI-8226 leukemia
RXF 393 renal = system: RXF 393 renal
SF-268 CNS = system: SF-268 CNS
SF-295 CNS = system: SF-295 CNS
SF-539 CNS = system: SF-539 CNS
SK-MEL-2 melanoma = system: SK-MEL-2 melanoma
SK-MEL-28 melanoma = system: SK-MEL-28 melanoma
SK-OV-3 ovarian = system: SK-OV-3 ovarian
SN12C renal = system: SN12C renal
SNB-19 CNS = system: SNB-19 CNS
SNB-75 CNS = system: SNB-75 CNS
SW-620 colon = system: SW-620 colon
T-47D breast = system: T-47D breast
TK-10 renal = system: TK-10 renal
U251 CNS = system: U251 CNS
UACC-257 melanoma = system: UACC-257 melanoma
UACC-62 melanoma = system: UACC-62 melanoma
UO-31 renal = system: UO-31 renal
BT-549 breast = system: BT-549 breast
MALME-3M melanoma = system: MALME-3M melanoma
NCI-H460 lung = system: NCI-H460 lung
SK-MEL-5 melanoma = system: SK-MEL-5 melanoma
SR leukemia = system: SR leukemia

COc1ccc(NC(=O)CC(=O)N2N=C(N(c3ccccc3)c3ccccc3)CC2c2ccccc2)cc1 (configuration not stated)
> 100 µM: TGI (786-0 renal) | TGI (A498 renal) | TGI (A549 NSCLC) | TGI (ACHN renal) | TGI (CAKI-1 renal) | TGI (CCRF-CEM leukemia) | TGI (COLO 205 colon) | TGI (DU-145 prostate) | TGI (EKVX NSCLC) | TGI (HCC-2998 colon) | TGI (HCT-116 colon) | TGI (HCT-15 colon) | TGI (HL-60(TB) leukemia) | TGI (HOP-62 NSCLC) | TGI (HOP-92 NSCLC) | TGI (HS 578T breast) | TGI (HT29 colon) | TGI (IGROV1 ovarian) | TGI (K-562 leukemia) | TGI (KM12 colon) | TGI (LOX IMVI melanoma) | TGI (M14 melanoma) | TGI (MCF7 breast) | TGI (MDA-MB-231 breast) | TGI (MDA-MB-435) | TGI (MOLT-4 leukemia) | TGI (NCI-H226 lung) | TGI (NCI-H23 lung) | TGI (NCI-H522 lung) | TGI (NCI/ADR-RES ovarian) | TGI (OVCAR-3 ovarian) | TGI (OVCAR-4 ovarian) | TGI (OVCAR-5 ovarian) | TGI (OVCAR-8 ovarian) | TGI (PC-3 prostate) | TGI (RPMI-8226 leukemia) | TGI (RXF 393 renal) | TGI (SF-268 CNS) | TGI (SF-295 CNS) | TGI (SF-539 CNS) | TGI (SK-MEL-2 melanoma) | TGI (SK-MEL-28 melanoma) | TGI (SK-OV-3 ovarian) | TGI (SN12C renal) | TGI (SNB-19 CNS) | TGI (SNB-75 CNS) | TGI (SW-620 colon) | TGI (T-47D breast) | TGI (TK-10 renal) | TGI (U251 CNS) | TGI (UACC-257 melanoma) | TGI (UACC-62 melanoma) | TGI (UO-31 renal)

O=NN1CCCS1(=O)=O
> 100 µM: TGI (786-0 renal) | TGI (A498 renal) | TGI (A549 NSCLC) | TGI (ACHN renal) | TGI (BT-549 breast) | TGI (CAKI-1 renal) | TGI (CCRF-CEM leukemia) | TGI (COLO 205 colon) | TGI (DU-145 prostate) | TGI (EKVX NSCLC) | TGI (HCC-2998 colon) | TGI (HCT-116 colon) | TGI (HCT-15 colon) | TGI (HL-60(TB) leukemia) | TGI (HOP-62 NSCLC) | TGI (HS 578T breast) | TGI (HT29 colon) | TGI (IGROV1 ovarian) | TGI (K-562 leukemia) | TGI (KM12 colon) | TGI (LOX IMVI melanoma) | TGI (M14 melanoma) | TGI (MALME-3M melanoma) | TGI (MCF7 breast) | TGI (MDA-MB-231 breast) | TGI (MOLT-4 leukemia) | TGI (NCI-H226 lung) | TGI (NCI-H23 lung) | TGI (NCI-H460 lung) | TGI (NCI/ADR-RES ovarian) | TGI (OVCAR-3 ovarian) | TGI (OVCAR-4 ovarian) | TGI (OVCAR-5 ovarian) | TGI (OVCAR-8 ovarian) | TGI (PC-3 prostate) | TGI (RPMI-8226 leukemia) | TGI (RXF 393 renal) | TGI (SF-268 CNS) | TGI (SF-295 CNS) | TGI (SF-539 CNS) | TGI (SK-MEL-28 melanoma) | TGI (SK-MEL-5 melanoma) | TGI (SK-OV-3 ovarian) | TGI (SN12C renal) | TGI (SNB-19 CNS) | TGI (SNB-75 CNS) | TGI (SR leukemia) | TGI (SW-620 colon) | TGI (T-47D breast) | TGI (TK-10 renal) | TGI (U251 CNS) | TGI (UACC-257 melanoma) | TGI (UACC-62 melanoma) | TGI (UO-31 renal)

N=C(N)c1ccc(-c2ccc(-c3cc(Cl)cc(Cl)c3)o2)o1
2.99 µM: TGI (MDA-MB-435)
3.18 µM: TGI (KM12 colon)
4.63 µM: TGI (RPMI-8226 leukemia)
3.49 µM: TGI (HL-60(TB) leukemia)
3.39 µM: TGI (TK-10 renal)
3.24 µM: TGI (DU-145 prostate)
3.11 µM: TGI (CAKI-1 renal)
3.34 µM: TGI (SK-OV-3 ovarian)
3.14 µM: TGI (OVCAR-3 ovarian)
inactive: GI50 (CAKI-1 renal) 1.7 µM | GI50 (DU-145 prostate) 1.78 µM | GI50 (HL-60(TB) leukemia) 1.62 µM | GI50 (HS 578T breast) 2.22 µM | GI50 (KM12 colon) 1.65 µM | GI50 (MDA-MB-435) 1.61 µM | GI50 (OVCAR-3 ovarian) 1.7 µM | GI50 (RPMI-8226 leukemia) 2.13 µM | GI50 (SK-OV-3 ovarian) 1.8 µM | GI50 (TK-10 renal) 1.85 µM
5.02 µM: TGI (HS 578T breast)
